In patent US6426369B1, “Oxethazaine as antimicrobial agent” (Eisai Co., Ltd., priority 1997, dated 2002):
In brackets after ≈: the same amount, converted by molar mass.

Experiments:
H. pylori [1] = assay: Antimicrobial activity test 6: oxethazaine in combination with an antibiotic (AMPC, CAM, RXM), checker board method; assay type: cell-based, Helicobacter pylori; conditions: combined use with oxethazaine; out of 15 strains (AMPC), 21 strains (CAM), 22 strains (RXM)
From the text: The effect of combined use with amoxicillin (AMPC), clarithromycin (CAM) or roxithromycin (RXM) was examined in the same manner as in antimicrobial activity test 1, using the checker board method.

Gram-positive bacteria = assay: Antimicrobial activity (MIC) of oxethazaine and structure analogues against Gram-positive bacteria; assay type: cell-based
H. pylori [2] = assay: Antimicrobial activity test 1: anti-H. pylori activity of a single compound (agar plate method); assay type: cell-based, Helicobacter pylori; conditions: Helicobacter pylori, read-out: MIC (growth inhibition)
H. pylori [3] = assay: Antimicrobial activity test 3: oxethazaine in combination with compound (II), checker board method; assay type: cell-based; conditions: Helicobacter pylori
From the text: In each Table, the concentration of oxethazaine is shown vertically, and the concentration of compound (II) is shown horizontally. In each Table, “−” indicates the inhibited growth of H. pylori (presence of antimicrobial activity), and “+” indicates the growth of H. pylori (absence of antimicrobial activity). […] It is assumed to be present when the MIC of either oxethazaine or PPI is reduced by ½ (when anti-H. pylori activity is not recognized when the concentrations of both oxethazaine and PPI are reduced to ¼, but anti-H. pylori activity is recognized when the concentration of one compound is reduced to ¼ and simultaneously the concentration of the other compound is reduced to ½.).

H. pylori [4] = assay: Antimicrobial activity test 2: time for sterilizing H. pylori (viable cell count in Brucella broth); assay type: cell-based, Helicobacter pylori; conditions: NCTC 11637
Description: A solution of the test compound was added to Brucella broth containing 5% fetal bovine serum, cultured under slightly aerobic conditions at 37° C., and the vial microbe cell number in Brucella agar containing 7% horse blood was counted at predetermined intervals. The above compound (1) was dissolved in a 1% aqueous solution of […] (DMSO), and the above compound (2) was dissolved in water to prepare a solution of each test compound. “cfu” in Tables and Figures means “colony forming unit”.

H. pylori [5] = conditions: PPI alone, 30 mg/day, 8 weeks; cited from earlier work
[6] = strain 90-397 (first line, r19)
[7] = strain 90-397 (second line, r25)

Row | Structure (SMILES) | antimicrobial activity (MIC) (Gram-positive bacteria; E. faecalis RIMD 3116001) [µg/mL] | antimicrobial activity (MIC) (Gram-positive bacteria; S. aureus FDA 209-P) [µg/mL] | antimicrobial activity (MIC) (Gram-positive bacteria; S. epidermidis ATCC 12228) [µg/mL] | MIC (H. pylori [2]; NCTC11637, strain NCTC11637) [µg/mL] | MIC (H. pylori [2]; NCTC11639, strain NCTC11639) [µg/mL] | MIC (H. pylori [2]; NCTC11916, strain NCTC11916) [µg/mL] | MIC (H. pylori [2]; strain 89-355) [µg/mL] | MIC (H. pylori [2]; strain 89-357) [µg/mL] | MIC (H. pylori [2]; strain 89-360) [µg/mL] | MIC (H. pylori [2]; strain 90-384) [µg/mL] | MIC (H. pylori [2]; strain 90-388 (1)) [µg/mL] | MIC (H. pylori [2]; strain 90-388) [µg/mL] | MIC (H. pylori [2]; strain 90-390 (1)) [µg/mL] | MIC (H. pylori [2]; strain 90-390) [µg/mL] | MIC (H. pylori [2]; strain 90-392) [µg/mL] | MIC (H. pylori [2]; [6]) [µg/mL] | MIC (H. pylori [2]; [7]) [µg/mL] | MIC (H. pylori [2]; strain 90-407) [µg/mL] | MIC (H. pylori [2]; strain 90-411) [µg/mL] | MIC (H. pylori [2]; strain 90-414 (1)) [µg/mL] | other results
1 | CC1(C)S[C@@H]2[C@H](NC(=O)[C@H](N)c3ccc(O)cc3)C(=O)N2[C@H]1C(=O)O [Amoxicillin, amoxicillin] |  |  |  |  |  |  |  |  |  |  |  |  |  |  |  |  |  |  |  |  | additive effect, number of strains (H. pylori [1]): 10 strains/; synergism, number of strains (H. pylori [1]): 0 strains/
2 | CC1(C)S[C@@H]2[C@H](NC(=O)[C@H](N)c3ccccc3)C(=O)N2[C@H]1C(=O)O [ampicillin] |  |  |  |  |  |  |  |  |  |  |  |  |  |  |  |  |  |  |  |  | Viable microbe cell number (H. pylori [4]; 1 MIC, 0 h): 6.25 log10cfu/ml; Viable microbe cell number (H. pylori [4]; 1 MIC, 3 h): 5.51 log10cfu/ml; Viable microbe cell number (H. pylori [4]; 1 MIC, 6 h): 4.49 log10cfu/ml; Viable microbe cell number (H. pylori [4]; 1 MIC, 24 h): 3.48 log10cfu/ml; Viable microbe cell number (H. pylori [4]; 2 MIC, 0 h): 6.25 log10cfu/ml; Viable microbe cell number (H. pylori [4]; 2 MIC, 3 h): 5.30 log10cfu/ml; Viable microbe cell number (H. pylori [4]; 2 MIC, 6 h): 4.41 log10cfu/ml; Viable microbe cell number (H. pylori [4]; 2 MIC, 24 h): 3.00 log10cfu/ml; Viable microbe cell number (H. pylori [4]; 4 MIC, 0 h): 6.25 log10cfu/ml; Viable microbe cell number (H. pylori [4]; 4 MIC, 3 h): 4.95 log10cfu/ml; Viable microbe cell number (H. pylori [4]; 4 MIC, 6 h): 4.20 log10cfu/ml; Viable microbe cell number (H. pylori [4]; 4 MIC, 24 h): 2.48 log10cfu/ml
3 | CCOC(=O)c1ccc(NC(=O)CN2CCCCC2)cc1 [(B)] | >100 | >100 | >100 |  |  |  |  |  |  |  |  |  |  |  |  |  |  |  |  |  | 
4 | CCOC(=O)c1ccc(N)cc1 [(A)] | >100 | >100 | >100 |  |  |  |  |  |  |  |  |  |  |  |  |  |  |  |  |  | 

Second part, led by results:

Row | antimicrobial activity (MIC) (Gram-positive bacteria; E. faecalis RIMD 3116001) [µg/mL] | antimicrobial activity (MIC) (Gram-positive bacteria; S. aureus FDA 209-P) [µg/mL] | antimicrobial activity (MIC) (Gram-positive bacteria; S. epidermidis ATCC 12228) [µg/mL] | MIC (H. pylori [2]; NCTC11637, strain NCTC11637) [µg/mL] | MIC (H. pylori [2]; NCTC11639, strain NCTC11639) [µg/mL] | MIC (H. pylori [2]; NCTC11916, strain NCTC11916) [µg/mL] | MIC (H. pylori [2]; strain 89-355) [µg/mL] | MIC (H. pylori [2]; strain 89-357) [µg/mL] | MIC (H. pylori [2]; strain 89-360) [µg/mL] | MIC (H. pylori [2]; strain 90-384) [µg/mL] | MIC (H. pylori [2]; strain 90-388 (1)) [µg/mL] | MIC (H. pylori [2]; strain 90-388) [µg/mL] | MIC (H. pylori [2]; strain 90-390 (1)) [µg/mL] | MIC (H. pylori [2]; strain 90-390) [µg/mL] | MIC (H. pylori [2]; strain 90-392) [µg/mL] | MIC (H. pylori [2]; [6]) [µg/mL] | MIC (H. pylori [2]; [7]) [µg/mL] | MIC (H. pylori [2]; strain 90-407) [µg/mL] | MIC (H. pylori [2]; strain 90-411) [µg/mL] | MIC (H. pylori [2]; strain 90-414 (1)) [µg/mL] | Structure (SMILES) | other results
5 | >100 | >100 | >100 |  |  |  |  |  |  |  |  |  |  |  |  |  |  |  |  |  | CCN(CC)CCOC(=O)c1ccc(N)cc1.Cl [(C)] | 
6 |  |  |  | 1.56 (≈ 4.54 µM) | 0.8 (≈ 2.33 µM) | 1.56 (≈ 4.54 µM) | 1.56 (≈ 4.54 µM) | 0.8 (≈ 2.33 µM) | 1.56 (≈ 4.54 µM) | 1.56 (≈ 4.54 µM) | 0.8 (≈ 2.33 µM) | 1.56 (≈ 4.54 µM) | 0.8 (≈ 2.33 µM) | 0.8 (≈ 2.33 µM) | 0.8 (≈ 2.33 µM) | 1.56 (≈ 4.54 µM) | 0.8 (≈ 2.33 µM) | 1.56 (≈ 4.54 µM) | 0.8 (≈ 2.33 µM) | 0.8 (≈ 2.33 µM) | COCCCOc1ccnc(CSc2nc3ccccc3[nH]2)c1C [Compound (II), 2-[4-(3-methoxypropoxy)-3-methylpyridine-2-yl]methylthio-1H-benzimidazole] | MIC (H. pylori [2]; strain 89-360 (1)): 1.56 µg/mL (≈ 4.54 µM); MIC (H. pylori [2]; strain 90-407 (1)): 0.8 µg/mL (≈ 2.33 µM); MIC (H. pylori [2]; strain 90-414): 0.8 µg/mL (≈ 2.33 µM); MIC (H. pylori [2]; strain 90-428): 1.56 µg/mL (≈ 4.54 µM); MIC (H. pylori [2]; strain EH12): 0.8 µg/mL (≈ 2.33 µM); MIC (H. pylori [2]; strain EH13): 0.8 µg/mL (≈ 2.33 µM); MIC (H. pylori [2]; strain EH16): 0.8 µg/mL (≈ 2.33 µM); MIC (H. pylori [2]; strain EH26): 1.56 µg/mL (≈ 4.54 µM); MIC (H. pylori [3]; NCTC11637, NCTC 11637): 1.56 µg/mL; MIC (H. pylori [3]; NCTC11639, NCTC 11639): 0.8 µg/mL
7 |  |  |  | 50 (≈ 145 µM) | 25 (≈ 72.4 µM) | 50 (≈ 145 µM) | 25 (≈ 72.4 µM) | 50 (≈ 145 µM) | 50 (≈ 145 µM) | 50 (≈ 145 µM) | 25 (≈ 72.4 µM) | 50 (≈ 145 µM) | 25 (≈ 72.4 µM) | 50 (≈ 145 µM) | 25 (≈ 72.4 µM) | 25 (≈ 72.4 µM) | 25 (≈ 72.4 µM) | 25 (≈ 72.4 µM) | 25 (≈ 72.4 µM) | 25 (≈ 72.4 µM) | COc1ccc2[nH]c([S+]([O-])Cc3ncc(C)c(OC)c3C)nc2c1 (stereo not drawn) [Compound (III), omeprazole] | MIC (H. pylori [2]; strain 90-414): 50 µg/mL (≈ 145 µM); MIC (H. pylori [2]; strain 90-428): 50 µg/mL (≈ 145 µM); MIC (H. pylori [2]; strain EH12): 25 µg/mL (≈ 72.4 µM); MIC (H. pylori [2]; strain EH13): 25 µg/mL (≈ 72.4 µM); MIC (H. pylori [2]; strain EH16): 25 µg/mL (≈ 72.4 µM); MIC (H. pylori [2]; strain EH26): 25 µg/mL (≈ 72.4 µM)
8 |  |  |  | 12.5 (≈ 33.8 µM) | 3.13 (≈ 8.47 µM) | 6.25 (≈ 16.9 µM) | 3.13 (≈ 8.47 µM) | 6.25 (≈ 16.9 µM) | 6.25 (≈ 16.9 µM) | 3.13 (≈ 8.47 µM) | 6.25 (≈ 16.9 µM) | 3.13 (≈ 8.47 µM) | 6.25 (≈ 16.9 µM) | 3.13 (≈ 8.47 µM) | 6.25 (≈ 16.9 µM) | 3.13 (≈ 8.47 µM) | 6.25 (≈ 16.9 µM) | 3.13 (≈ 8.47 µM) | 3.13 (≈ 8.47 µM) | 6.25 (≈ 16.9 µM) | Cc1c(OCC(F)(F)F)ccnc1C[S+]([O-])c1nc2ccccc2[nH]1 (stereo not drawn) [Compound (IV), lansoprazole] | MIC (H. pylori [2]; strain 89-360 (1)): 6.25 µg/mL (≈ 16.9 µM); MIC (H. pylori [2]; strain 90-407 (1)): 6.25 µg/mL (≈ 16.9 µM); MIC (H. pylori [2]; strain 90-414): 6.25 µg/mL (≈ 16.9 µM); MIC (H. pylori [2]; strain 90-428): 6.25 µg/mL (≈ 16.9 µM); MIC (H. pylori [2]; strain EH12): 3.13 µg/mL (≈ 8.47 µM); MIC (H. pylori [2]; strain EH13): 3.13 µg/mL (≈ 8.47 µM); MIC (H. pylori [2]; strain EH16): 3.13 µg/mL (≈ 8.47 µM); MIC (H. pylori [2]; strain EH26): 6.25 µg/mL (≈ 16.9 µM); degree of efficacy for H. pylori therapy (H. pylori [5]): 5%
